Reference: the supplement of paper PMC11061612

Legend:
AZD2811 = compound: CCN(CCO)CCCOc1ccc2c(Nc3cc(CC(=O)Nc4cccc(F)c4)[nH]n3)ncnc2c1 [AZD2811]; conditions: max 1 µM
Outline: (§1)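 Plates with 1536 wells received cancer cell lines in 7.5 μl of DMEM/F12 or RPMI containing 10% FBS. After 24 hours at 37°C and 5% CO2, cells were dosed for 72 hours with final DMSO typically 0.2%, and viability was read by CellTiter-Glo 2.0 luminescence scaled between blank-well and DMSO-well means. The single-agent IC50 was taken from a logistic fit of the dose responses made with a non-linear mixed effects model, that logistic curve having two parameters.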

AZD5991 = compound: Cc1c2c(nn1C)CSCc1cc(n(C)n1)CSc1cc(c3ccccc3c1)OCCCc1c(C(=O)O)n(C)c3c-2c(Cl)ccc13 [AZD5991]; conditions: max 1 µM
Outline: as §1

Gefitinib = compound: COc1cc2ncnc(Nc3ccc(F)c(Cl)c3)c2cc1OCCCN1CCOCC1 [Gefitinib]; conditions: max 10 µM
Outline: as §1

AZD5153 = compound: COc1nnc2ccc(N3CCC(c4ccc(OCCN5CCN(C)C(=O)[C@H]5C)cc4)CC3)nn12 [AZD5153]; conditions: max 1 µM
Outline: as §1

SN-38 = compound: CCc1c2c(nc3ccc(O)cc13)-c1cc3c(c(=O)n1C2)COC(=O)[C@]3(O)CC [SN-38]; conditions: max 0.3 µM
Outline: as §1

Lapatinib = compound: CS(=O)(=O)CCNCc1ccc(-c2ccc3ncnc(Nc4ccc(OCc5cccc(F)c5)c(Cl)c4)c3c2)o1 [Lapatinib]; conditions: max 10 µM
Outline: as §1

Prexasertib = compound: COc1cccc(OCCCN)c1-c1cc(Nc2cnc(C#N)cn2)n[nH]1 [Prexasertib]; conditions: max 1 µM
Outline: as §1

Doxorubicin = compound: COc1cccc2c1C(=O)c1c(O)c3c(c(O)c1C2=O)C[C@@](O)(C(=O)CO)C[C@@H]3O[C@H]1C[C@H](N)[C@H](O)[C@H](C)O1 [Doxorubicin]; conditions: max 1 µM
Outline: as §1

AZD7648 = compound: Cc1cc2ncnn2cc1Nc1ncc2c(n1)n(C1CCOCC1)c(=O)n2C [AZD7648]; conditions: max 10 µM
Outline: as §1

Venetoclax = compound: CC1(C)CCC(CN2CCN(c3ccc(C(=O)NS(=O)(=O)c4ccc(NCC5CCOCC5)c([N+](=O)[O-])c4)c(Oc4cnc5[nH]ccc5c4)c3)CC2)=C(c2ccc(Cl)cc2)C1 [Venetoclax]; conditions: max 1 µM
Outline: as §1

Dasatinib = compound: CC1=C(C(=CC=C1)Cl)NC(=O)C2=CN=C(S2)NC3=CC(=NC(=N3)C)N4CCN(CC4)CCO [Dasatinib]; conditions: max 2 µM
Outline: as §1

Crizotinib = compound: C[C@@H](Oc1cc(-c2cnn(C3CCNCC3)c2)cnc1N)c1c(Cl)ccc(F)c1Cl [Crizotinib]; conditions: max 10 µM
Outline: as §1

Capivasertib = compound: C1CN(CCC1(C(=O)N[C@@H](CCO)C2=CC=C(C=C2)Cl)N)C3=NC=NC4=C3C=CN4 [Capivasertib]; conditions: max 10 µM
Outline: as §1

AZD6738 = compound: C[C@@H]1COCCN1C2=NC(=NC(=C2)C3(CC3)[S@](=N)(=O)C)C4=C5C=CNC5=NC=C4 [AZD6738]; conditions: max 10 µM
Outline: as §1

Taselisib = compound: Cc1nc(-c2cn3c(n2)-c2ccc(-c4cnn(C(C)(C)C(N)=O)c4)cc2OCC3)n(C(C)C)n1 [Taselisib]; conditions: max 10 µM
Outline: as §1

AZD4320 = compound: CN(CC[C@H](CSC1=CC=CC=C1)NC2=C(C=C(C=C2)S(=O)(=O)NC(=O)C3=CC=C(C=C3)N4CCC(CC4)[C@H](C5=CC=CC=C5C6=CC=C(C=C6)Cl)O)S(=O)(=O)C(F)(F)F)CCO [AZD4320]; conditions: max 1 µM
Outline: as §1

AZD0156 = compound: CN(C)CCCOc1ccc(-c2ccc3ncc4c(c3c2)n(C2CCOCC2)c(=O)n4C)cn1 [AZD0156]; conditions: max 3 µM
Outline: as §1

Savolitinib = compound: C[C@@H](c1ccc2nccn2c1)n1nnc2ncc(-c3cnn(C)c3)nc21 [Savolitinib]; conditions: max 1 µM
Outline: as §1

Selumetinib = compound: Cn1cnc2c(F)c(Nc3ccc(Br)cc3Cl)c(C(=O)NOCCO)cc21 [Selumetinib]; conditions: max 10 µM
Outline: as §1

Alisertib = compound: COc1cc(Nc2ncc3c(n2)-c2ccc(Cl)cc2C(c2c(F)cccc2OC)=NC3)ccc1C(=O)O [Alisertib]; conditions: max 10 µM
Outline: as §1

SG3199 = compound: CC1=CN2[C@@H](C1)C=NC3=CC(=C(C=C3C2=O)OC)OCCCCCOC4=C(C=C5C(=C4)N=C[C@@H]6CC(=CN6C5=O)C)OC [SG3199]; conditions: max 0.001 µM
Outline: as §1

AZD1390 = compound: CC(C)n1c(=O)n(C)c2cnc3cc(F)c(-c4ccc(OCCCN5CCCCC5)nc4)cc3c21 [AZD1390]; conditions: max 0.3 µM
Outline: as §1

Trametinib = compound: CC(=O)Nc1cccc(-n2c(=O)n(C3CC3)c(=O)c3c(Nc4ccc(I)cc4F)n(C)c(=O)c(C)c32)c1 [Trametinib]; conditions: max 1 µM
Outline: as §1

Palbociclib = compound: CC(=O)c1c(C)c2cnc(Nc3ccc(N4CCNCC4)cn3)nc2n(C2CCCC2)c1=O [Palbociclib]; conditions: max 10 µM
Outline: as §1

AZD8186 = compound: C[C@@H](Nc1cc(F)cc(F)c1)c1cc(C(=O)N(C)C)cc2c(=O)cc(N3CCOCC3)oc12 [AZD8186]; conditions: max 3 µM
Outline: as §1

AZD1775 = compound: C=CCn1c(=O)c2cnc(Nc3ccc(N4CCN(C)CC4)cc3)nc2n1-c1cccc(C(C)(C)O)n1 [AZD1775]; conditions: max 3 µM
Outline: as §1

Olaparib = compound: O=C(c1cc(Cc2n[nH]c(=O)c3ccccc23)ccc1F)N1CCN(C(=O)C2CC2)CC1 [Olaparib]; conditions: max 10 µM
Outline: as §1

MK-2206 = compound: NC1(c2ccc(-c3nc4ccn5c(=O)[nH]nc5c4cc3-c3ccccc3)cc2)CCC1 [MK-2206]; conditions: max 10 µM
Outline: as §1

Cell Line | IC50, cell viability 72 h (AZD2811) [nM] | IC50, cell viability 72 h (AZD5991) [nM] | IC50, cell viability 72 h (Gefitinib) [nM] | IC50, cell viability 72 h (AZD5153) [nM] | IC50, cell viability 72 h (SN-38) [nM] | IC50, cell viability 72 h (Lapatinib) [nM] | IC50, cell viability 72 h (Prexasertib) [nM] | IC50, cell viability 72 h (Doxorubicin) [nM] | IC50, cell viability 72 h (AZD7648) [nM] | IC50, cell viability 72 h (Venetoclax) [nM] | IC50, cell viability 72 h (Dasatinib) [nM] | IC50, cell viability 72 h (Crizotinib) [nM] | IC50, cell viability 72 h (Capivasertib) [nM] | IC50, cell viability 72 h (AZD6738) [nM] | IC50, cell viability 72 h (Taselisib) [nM] | IC50, cell viability 72 h (AZD4320) [nM] | IC50, cell viability 72 h (AZD0156) [nM] | IC50, cell viability 72 h (Savolitinib) [nM] | IC50, cell viability 72 h (Selumetinib) [nM] | IC50, cell viability 72 h (Alisertib) [nM] | IC50, cell viability 72 h (SG3199) [nM] | IC50, cell viability 72 h (AZD1390) [nM] | IC50, cell viability 72 h (Trametinib) [nM] | IC50, cell viability 72 h (Palbociclib) [nM] | IC50, cell viability 72 h (AZD8186) [nM] | IC50, cell viability 72 h (AZD1775) [nM] | IC50, cell viability 72 h (Olaparib) [nM] | IC50, cell viability 72 h (MK-2206) [nM]
SAT (Head and Neck Carcinoma) | > 1000 | > 1000 | 2610 | 155 | > 300 | 2020 | 826 | > 1000 | > 10000 | > 1000 | 204 | > 10000 | > 10000 | > 10000 | 160 | > 1000 | > 3000 | > 1000 | 4690 | 2920 | > 1 | > 300 | 77.2 | > 10000 | > 3000 | 2690 | > 10000 | –
SNU-407 (Colorectal Carcinoma) | > 1000 | > 1000 | > 10000 | 62.9 | 160 | > 10000 | 458 | > 1000 | > 10000 | > 1000 | > 2000 | > 10000 | 6340 | 4120 | 365 | > 1000 | > 3000 | > 1000 | 2560 | 1150 | > 1 | > 300 | 74.3 | > 10000 | > 3000 | 1570 | > 10000 | > 10000
SNU-C2B (Colorectal Carcinoma) | > 1000 | > 1000 | > 10000 | 788 | > 300 | > 10000 | 133 | > 1000 | > 10000 | > 1000 | > 2000 | > 10000 | > 10000 | 7630 | 8210 | > 1000 | > 3000 | > 1000 | > 10000 | > 10000 | > 1 | > 300 | > 1000 | > 10000 | > 3000 | 1120 | > 10000 | –
SUP-M2 (T-Cell Non-Hodgkin's Lymphoma) | 22.6 | 117 | > 10000 | 30.4 | 1.56 | 6550 | 16.5 | 54.7 | > 10000 | > 1000 | > 2000 | 475 | > 10000 | 1010 | > 10000 | 805 | > 3000 | > 1000 | > 10000 | 57.7 | > 1 | > 300 | > 1000 | 6520 | > 3000 | 316 | 5400 | –
SiHa (Cervical Carcinoma) | > 1000 | > 1000 | > 10000 | 444 | > 300 | > 10000 | > 1000 | > 1000 | > 10000 | > 1000 | > 2000 | > 10000 | > 10000 | > 10000 | > 10000 | > 1000 | > 3000 | > 1000 | > 10000 | > 10000 | > 1 | > 300 | > 1000 | > 10000 | > 3000 | > 3000 | > 10000 | –
T47D (Breast Carcinoma) | > 1000 | > 1000 | > 10000 | > 1000 | 104 | > 10000 | > 1000 | > 1000 | > 10000 | > 1000 | > 2000 | > 10000 | > 10000 | > 10000 | 776 | > 1000 | > 3000 | > 1000 | > 10000 | > 10000 | > 1 | > 300 | > 1000 | > 10000 | > 3000 | > 3000 | > 10000 | –
UACC-257 (Melanoma) | > 1000 | > 1000 | > 10000 | > 1000 | > 300 | > 10000 | > 1000 | > 1000 | > 10000 | > 1000 | > 2000 | > 10000 | > 10000 | > 10000 | > 10000 | > 1000 | > 3000 | > 1000 | 2330 | > 10000 | > 1 | > 300 | 41.2 | > 10000 | > 3000 | > 3000 | > 10000 | –
WM35 (Melanoma) | > 1000 | > 1000 | > 10000 | > 1000 | 210 | > 10000 | 134 | > 1000 | > 10000 | > 1000 | > 2000 | > 10000 | > 10000 | > 10000 | > 10000 | > 1000 | > 3000 | > 1000 | 1090 | > 10000 | > 1 | > 300 | 16.6 | > 10000 | > 3000 | > 3000 | > 10000 | –
